The text below walks through data of PubChem BioAssay (NCI).

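Results reflect a 48-hour exposure of cells in 96-well plates to compound at five concentrations. GI50 marks 50% less growth. TGI: total growth inhibition.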

Test systems include HT29 colon; U251 CNS; OVCAR-5 ovarian; HS 578T breast; KM12 colon; NCI-H226 lung; T-47D breast; SW-620 colon.
Holding throughout (test): NCI-60 cell line screen, 48 h

For the compound `CC(C)[C@@H]1NC(=O)[C@]2(C)CSC(=N2)c2ccnc(c2)CNC(=O)C[C@@H](/C=C/CCS)OC1=O`, the GI50 with HT29 colon is 0.242 µM; in the assay with U251 CNS, 0.107 µM; in the assay on OVCAR-5 ovarian, 0.156 µM; with HS 578T breast, 0.0407 µM; in the assay on KM12 colon, 0.0857 µM; with NCI-H226 lung, 0.458 µM. For the same compound, the GI50 in the assay with T-47D breast was 1.73 µM; in the assay with SW-620 colon, 0.448 µM. Moreover, the TGI with HT29 colon was 1.57 µM; with U251 CNS, 0.73 µM; in the assay on OVCAR-5 ovarian it was above 100 µM; in the assay on KM12 colon it was above 86.1 µM; with NCI-H226 lung it was 12.4 µM; with T-47D breast, 6.91 µM. In the assay on SW-620 colon, this compound showed a TGI of 7.65 µM.
Turning to `CC(=O)OCc1ccc2c(c1)C(O)NC(=O)O2` (configuration not stated), the TGI in the assay with HT29 colon, in the assay on U251 CNS, in the assay on OVCAR-5 ovarian, in the assay on HS 578T breast, in the assay with KM12 colon and with NCI-H226 lung was above 100 µM throughout. The TGI in the assay with T-47D breast and with SW-620 colon was above 100 µM in each case.
With `COc1c2ccccc2c(OC)c2[nH]c(=O)ccc12`, the GI50 in the assay with HT29 colon was 4.66 µM; with U251 CNS, 4 µM; in the assay with OVCAR-5 ovarian, 8.02 µM; in the assay on HS 578T breast it was 2.68 µM; with KM12 colon, 3.11 µM; with NCI-H226 lung it was 2.37 µM. Moreover, the GI50 in the assay on T-47D breast is 21.5 µM; in the assay on SW-620 colon it was 4.2 µM. Further, the TGI was above 57 µM in the assay with HT29 colon; above 69 µM with U251 CNS; above 85.4 µM in the assay on OVCAR-5 ovarian; 20.7 µM in the assay on HS 578T breast; above 27.5 µM in the assay on KM12 colon; 7.22 µM with NCI-H226 lung. Further, the figures for the TGI in the assay with T-47D breast and in the assay on SW-620 colon were above 100 µM and above 63.4 µM, respectively.
With `Nc1nc2[nH]cc(CCc3ccc(C(=O)N[C@@H](CCC(=O)O)C(=O)O)cc3)c2c(=O)[nH]1`, the GI50 was 35 µM with HT29 colon and 14.6 µM in the assay with U251 CNS. The TGI in the assay with HT29 colon, with U251 CNS, with OVCAR-5 ovarian, with HS 578T breast, with KM12 colon and in the assay with NCI-H226 lung was above 100 µM in each case. Also, the TGI in the assay with T-47D breast and in the assay with SW-620 colon was above 100 µM each time.
Turning to `Fc1cc(-c2nnc3n2N=C(c2ccc(Cl)cc2)CS3)c(Cl)cc1Cl`, the GI50 with HT29 colon is 2.71 µM; in the assay with U251 CNS, 11.4 µM; in the assay on OVCAR-5 ovarian, 15.5 µM; in the assay on HS 578T breast it was 22.7 µM; with KM12 colon, 13.1 µM; in the assay on NCI-H226 lung, 17.8 µM. For the same compound, the values for the GI50 in the assay on T-47D breast and in the assay with SW-620 colon were 2.76 µM and 1.55 µM, respectively. Besides, the TGI with U251 CNS was found to be 28.4 µM; in the assay on OVCAR-5 ovarian, 32.7 µM; in the assay on HS 578T breast it was 51.5 µM; in the assay on KM12 colon, 36.4 µM; with NCI-H226 lung, 40.6 µM; in the assay with T-47D breast, 20 µM. The TGI in the assay with SW-620 colon is 3 µM.
As to `c1ccc(-c2n(Cc3ccc4ccccc4n3)cc[n+]2Cc2ccc3ccccc3c2)cc1`, the GI50 in the assay with HT29 colon is 0.979 µM; in the assay with U251 CNS, 0.923 µM; in the assay on OVCAR-5 ovarian, 2.05 µM; with HS 578T breast, 1.94 µM; with KM12 colon it was 0.823 µM; in the assay with NCI-H226 lung it was 1.3 µM. For the same compound, the GI50 in the assay on T-47D breast was 0.378 µM; in the assay on SW-620 colon it was 1.91 µM. Moreover, the TGI with HT29 colon came out at 4.59 µM; in the assay on U251 CNS, 3.25 µM; in the assay with OVCAR-5 ovarian, 7.27 µM; with HS 578T breast it was 6.31 µM; in the assay with KM12 colon, 2.42 µM; in the assay with NCI-H226 lung, 7.33 µM. The values for the TGI in the assay with T-47D breast and with SW-620 colon were 4.36 µM and 7.4 µM, respectively.
For `CCNC(=O)C#Cc1ccc2c(C(=Nc3ccc(CN(C)C)cc3)c3ccccc3)c(O)[nH]c2c1`, the GI50 in the assay on HT29 colon is 0.013 µM; with U251 CNS it was 0.376 µM; with OVCAR-5 ovarian it was 0.0262 µM; with HS 578T breast it was 0.291 µM; with KM12 colon, 0.0323 µM; in the assay with NCI-H226 lung, 0.314 µM. In addition, the values for the GI50 in the assay with T-47D breast and in the assay on SW-620 colon were 3.21 µM and 0.0156 µM, respectively. Besides, the TGI in the assay with HT29 colon was 1.39 µM; in the assay on U251 CNS, 2.9 µM; with OVCAR-5 ovarian it was 0.732 µM; in the assay on HS 578T breast, 1.66 µM; in the assay with KM12 colon it was above 10 µM; with NCI-H226 lung, above 10 µM. Moreover, the values for the TGI with T-47D breast and in the assay on SW-620 colon were above 6.87 µM and 1.54 µM, respectively.
As to `COc1ccc2ncnc(Nc3ccc(OCc4ccccc4)cc3)c2c1`, the GI50 in the assay with HT29 colon is 6.54 µM; in the assay with U251 CNS, 8.54 µM; with OVCAR-5 ovarian, 6.57 µM; in the assay on HS 578T breast it was 10.2 µM; in the assay on KM12 colon it was 8.67 µM; in the assay with NCI-H226 lung it was 8.1 µM. For the same compound, the GI50 is 5.37 µM with T-47D breast and 9.04 µM in the assay on SW-620 colon. In addition, the TGI in the assay with HT29 colon was above 25 µM; in the assay on U251 CNS, above 25 µM; with OVCAR-5 ovarian, above 22.6 µM; with HS 578T breast, above 25 µM; in the assay with KM12 colon, above 25 µM; with NCI-H226 lung it was above 25 µM. Further, the TGI in the assay on T-47D breast and in the assay with SW-620 colon was above 25 µM each time.
On to `CC(=C(c1ccc(OCCN2CCCCC2)cc1)c1ccc(OCCN2CCCCC2)cc1)c1ccc(Cl)cc1`, for which the GI50 in the assay on HT29 colon is 0.35 µM; in the assay with U251 CNS it was 0.387 µM; with OVCAR-5 ovarian it was 0.417 µM; in the assay on HS 578T breast it was 0.458 µM; with KM12 colon, 0.454 µM; with NCI-H226 lung, 0.457 µM. Moreover, the GI50 was 0.43 µM in the assay with T-47D breast and 0.408 µM in the assay with SW-620 colon. The TGI with HT29 colon is 0.779 µM; in the assay with U251 CNS, 0.747 µM; in the assay on OVCAR-5 ovarian it was 0.771 µM; in the assay on HS 578T breast it was 1.04 µM; in the assay on KM12 colon, 0.887 µM; in the assay on NCI-H226 lung, 0.962 µM. For the same compound, the figures for the TGI in the assay with T-47D breast and with SW-620 colon were 1.04 µM and 0.794 µM, respectively.
Take `CCCCCCCCCCSC(=N)N` (tested in a mixture with another compound): the GI50 in the assay on HT29 colon is 1.78 µM; with U251 CNS, 1.77 µM; with OVCAR-5 ovarian, 13.1 µM; with HS 578T breast it was 8.03 µM; with KM12 colon, 1.97 µM; in the assay on NCI-H226 lung, 18.3 µM. The GI50 is 1.86 µM in the assay on T-47D breast and 2.1 µM in the assay with SW-620 colon. Also, the TGI was 4.34 µM in the assay with HT29 colon; 3.62 µM in the assay with U251 CNS; 32.7 µM with OVCAR-5 ovarian; 29.5 µM with HS 578T breast; 4.12 µM with KM12 colon; 40.1 µM with NCI-H226 lung. For the same compound, the TGI in the assay on T-47D breast is 4.95 µM; in the assay with SW-620 colon, 4.7 µM.
Take `Cc1ccc(-c2nc(N3CCNCC3)c3oc(-c4ccc(C)cc4)nc3n2)cc1`: the GI50 in the assay on HT29 colon was 1.88 µM; in the assay with U251 CNS, 1.83 µM; in the assay on OVCAR-5 ovarian, 5.21 µM; in the assay with KM12 colon, 1.66 µM; in the assay with NCI-H226 lung it was above 44.1 µM; with T-47D breast it was 25.7 µM. For the same compound, the GI50 in the assay with SW-620 colon was 1.8 µM. Besides, the TGI in the assay with HT29 colon is 3.42 µM; with U251 CNS it was 3.32 µM; in the assay on OVCAR-5 ovarian, 17.9 µM; in the assay on HS 578T breast, above 24.2 µM; with KM12 colon, 3.2 µM; with NCI-H226 lung, above 64.7 µM. For the same compound, the TGI was above 61.1 µM in the assay on T-47D breast and 4.02 µM in the assay with SW-620 colon.
As to `OC(c1cc(C(F)(F)F)nc2c(C(F)(F)F)cccc12)C1CCCCN1` (configuration not stated), the GI50 was 1.99 µM in the assay with HT29 colon; 1.79 µM with U251 CNS; 2.88 µM in the assay on OVCAR-5 ovarian; 3.8 µM with HS 578T breast; 1.87 µM in the assay with KM12 colon; 1.8 µM in the assay on NCI-H226 lung. Besides, the GI50 in the assay on T-47D breast is 1.76 µM; in the assay with SW-620 colon, 1.85 µM. Besides, the TGI with HT29 colon came out at 3.92 µM; in the assay on U251 CNS, 4.25 µM; in the assay on OVCAR-5 ovarian it was 10.4 µM; with HS 578T breast, 19.5 µM; in the assay with KM12 colon, 3.59 µM; with NCI-H226 lung, 3.7 µM. Besides, the results for the TGI in the assay on T-47D breast and in the assay on SW-620 colon were 4.11 µM and 3.46 µM, respectively.
As to `CC(C)(C)[Si](C)(C)OC1[C@@H](O[Si](C)(C)C(C)(C)C)[C@@H](CNC(=O)NC(=O)C(F)(F)F)O[C@H]1n1cnc2c(NC(=O)Nc3ccccc3)ncnc21` (some centres not stated), the GI50 with HT29 colon was 4.33 µM; with U251 CNS, 7.4 µM; in the assay with OVCAR-5 ovarian, 7.89 µM; in the assay on HS 578T breast, 4.5 µM; with KM12 colon, 4.02 µM; in the assay on NCI-H226 lung, 4.61 µM. Moreover, the GI50 with T-47D breast is 5.64 µM; in the assay on SW-620 colon it was 7.53 µM. Further, the TGI in the assay with HT29 colon was found to be 11.1 µM; with U251 CNS, 14.5 µM; in the assay with OVCAR-5 ovarian, 14.6 µM; in the assay with HS 578T breast, 17.2 µM; with KM12 colon, 11.4 µM; with NCI-H226 lung, 11.8 µM. Besides, the TGI came to 11.8 µM in the assay with T-47D breast and 15.7 µM in the assay with SW-620 colon.
As for `CN1CCN(c2ccc(Nc3ncc(Cl)c(NC[C@@H]4CCCO4)n3)cc2)CC1`, the GI50 is 1.72 µM in the assay on HT29 colon; 2 µM in the assay on U251 CNS; 1.18 µM in the assay on OVCAR-5 ovarian; 1.32 µM in the assay with HS 578T breast; 0.362 µM in the assay with KM12 colon; 0.266 µM with NCI-H226 lung. The values for the GI50 with T-47D breast and in the assay with SW-620 colon were 5.8 µM and 0.538 µM, respectively. In addition, the TGI was above 100 µM in the assay with HT29 colon; 49.1 µM in the assay with U251 CNS; above 100 µM in the assay on OVCAR-5 ovarian; 11.2 µM in the assay on HS 578T breast; 11.7 µM with KM12 colon; 6.47 µM with NCI-H226 lung. Besides, the TGI with T-47D breast was 58.3 µM; in the assay with SW-620 colon, above 100 µM.
